# Experiments:
# [1] = Suppression of spontaneous calcium oscillation frequency in C57Bl/6J mouse primary neocortical neuron incubated for 15 mins by Fluo-4 dye based assay; assay type: functional, cell-based; details: 0.25 h
# [2] = Suppression of spontaneous calcium oscillation amplitude in C57Bl/6J mouse primary neocortical neuron incubated for 15 mins by Fluo-4 dye based assay; assay type: functional, cell-based; details: 0.25 h
# [3] = Suppression of spontaneous calcium oscillation frequency in 4-AP-induced C57Bl/6J mouse primary neocortical neuron incubated for 25 mins by Fluo-4 dye based assay; assay type: functional, cell-based
# [4] = Suppression of spontaneous calcium oscillation amplitude in 4-AP-induced C57Bl/6J mouse primary neocortical neuron incubated for 25 mins by Fluo-4 dye based assay; assay type: functional, cell-based
# Androgen receptor = Androgen receptor (Homo sapiens, UniProt P10275); test: Displacement of [3H]-DHT from recombinant androgen receptor (unknown origin) incubated for 3 hrs by liquid scintillation counter method
# Chain of Androgen receptor (P10275 whole entry): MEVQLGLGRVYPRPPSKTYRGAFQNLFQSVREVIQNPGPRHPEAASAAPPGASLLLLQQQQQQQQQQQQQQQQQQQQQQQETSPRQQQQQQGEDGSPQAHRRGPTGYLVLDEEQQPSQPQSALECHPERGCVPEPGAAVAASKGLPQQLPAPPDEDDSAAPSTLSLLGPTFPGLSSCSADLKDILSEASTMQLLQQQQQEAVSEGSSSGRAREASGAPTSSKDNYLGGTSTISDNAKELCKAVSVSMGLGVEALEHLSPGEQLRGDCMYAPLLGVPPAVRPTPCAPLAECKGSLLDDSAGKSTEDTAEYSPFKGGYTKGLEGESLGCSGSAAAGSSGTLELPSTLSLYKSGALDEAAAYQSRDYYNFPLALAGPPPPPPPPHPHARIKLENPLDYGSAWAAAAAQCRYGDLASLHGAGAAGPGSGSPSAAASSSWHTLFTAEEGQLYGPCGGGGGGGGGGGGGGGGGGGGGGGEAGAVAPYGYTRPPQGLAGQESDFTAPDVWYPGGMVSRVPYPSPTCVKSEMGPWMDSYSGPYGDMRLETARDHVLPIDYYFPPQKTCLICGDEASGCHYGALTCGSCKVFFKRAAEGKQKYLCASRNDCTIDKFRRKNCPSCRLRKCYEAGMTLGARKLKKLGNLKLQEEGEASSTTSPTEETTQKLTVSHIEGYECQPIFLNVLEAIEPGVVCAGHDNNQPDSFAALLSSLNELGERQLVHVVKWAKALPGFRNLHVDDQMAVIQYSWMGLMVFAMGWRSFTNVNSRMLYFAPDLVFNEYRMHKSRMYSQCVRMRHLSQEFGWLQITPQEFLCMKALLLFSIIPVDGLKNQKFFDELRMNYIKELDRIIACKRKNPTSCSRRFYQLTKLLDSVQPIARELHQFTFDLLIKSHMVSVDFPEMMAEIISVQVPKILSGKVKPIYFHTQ
# L1210 = test: Antiproliferative activity against mouse L1210 cells assessed as inhibition of cell proliferation incubated for 48 hrs by Coulter counter method; assay type: functional, cell-based; details: L1210, 48 h
# [5] = Antiproliferative activity against human IMC cells assessed as inhibition of cell proliferation incubated for 48 hrs by Coulter counter method; assay type: functional, cell-based
# [6] = system: Panel NCI-60 (60 carcinoma cell lines); test: Cytotoxicity against human Panel NCI-60 (60 carcinoma cell lines) cells assessed as cell growth inhibition; assay type: functional, cell-based
# MDA-MB-435 = test: Antiproliferative activity against human MDA-MB-435 cells assessed as inhibition of cell proliferation incubated for 24 hrs by MTT assay; assay type: functional, cell-based; details: MDA-MB-435, 24 h
# T-cell = test: Cytotoxicity against mouse spleen T-cells assessed as cell growth inhibition; assay type: functional, cell-based
# Macrophage = test: Cytotoxicity against mouse spleen macrophage assessed as cell growth inhibition; assay type: functional, cell-based
# A549 [7] = test: Cytotoxicity against human A549 cells assessed as cell growth inhibition; assay type: functional, cell-based
# HL-60 = test: Cytotoxicity against human HL-60 cells assessed as cell growth inhibition; assay type: functional, cell-based
# NSCLC = test: Cytotoxicity against human NSCLC cells assessed as cell growth inhibition incubated for 96 hrs by Cell Titer Glo assay; assay type: functional, cell-based
# NCI-H1395 = test: Cytotoxicity against human NCI-H1395 cells assessed as cell growth inhibition incubated for 96 hrs by Cell Titer Glo assay; assay type: functional, cell-based; details: NCI-H1395, 96 h
# HCC1395 = test: Cytotoxicity against human HCC1395 cells assessed as cell growth inhibition incubated for 96 hrs by Cell Titer Glo assay; assay type: functional, cell-based; details: HCC1395, 96 h
# SF-268 = test: Cytotoxicity against human SF-268 cells assessed as cell growth inhibition incubated for 72 hrs by SRB assay; assay type: functional, cell-based; details: SF-268, 72 h
# MCF7 [8] = test: Cytotoxicity against human MCF7 cells assessed as cell growth inhibition incubated for 72 hrs by SRB assay; assay type: functional, cell-based; details: MCF7, 72 h
# HepG2 = test: Cytotoxicity against human HepG2 cells assessed as cell growth inhibition incubated for 72 hrs by SRB assay; assay type: functional, cell-based; details: HepG2, 72 h
# A549 [9] = test: Cytotoxicity against human A549 cells assessed as cell growth inhibition incubated for 72 hrs by SRB assay; assay type: functional, cell-based; details: A549, 72 h
# SW-620 = test: Antitumor activity against human SW620 cells xenografted in BALB/c nude mouse assessed as tumor growth inhibition at 10 mg/kg/day, ip for 28 days relative to control; assay type: functional; details: SW-620, 672 h, time 28 day, read-out: TGI
# MCF7 [10] = test: Antitumor activity against human MCF7 cells xenografted in athymic nude BALB/c mouse assessed as tumor growth inhibition at 5 mg/kg, iv measured every 4 days for 40 days by caliper method relative to control; assay type: functional; details: MCF7, 960 h, time 40 day, read-out: TGI
# MCF7 [11] = test: Antitumor activity against human MCF7 cells xenografted in athymic nude BALB/c mouse assessed as tumor growth inhibition at 10 mg/kg, iv measured every 4 days for 40 days by caliper method relative to control; assay type: functional; details: MCF7, 960 h, time 40 day, read-out: TGI
# MCF7 [12] = test: Antitumor activity against human MCF7 cells xenografted in athymic nude BALB/c mouse assessed as tumor growth inhibition at 20 mg/kg, iv measured every 4 days for 40 days by caliper method relative to control; assay type: functional; details: MCF7, 960 h, time 40 day, read-out: TGI
# MCF7 [13] = test: Antitumor activity against human MCF7 cells xenografted in athymic nude BALB/c mouse assessed as tumor growth inhibition at 20 mg/kg, iv measured every 4 days for 40 days by caliper method relative to PTX; assay type: functional; details: MCF7, 960 h, time 40 day, read-out: TGI
# MCF7 [14] = test: Antitumor activity against Adriamycin-resistant human MCF7 cells xenografted in athymic nude BALB/c mouse assessed as tumor growth inhibition at 5 mg/kg, iv measured every 4 days for 40 days by caliper method relative to control; assay type: functional; details: MCF7, 960 h, time 40 day, read-out: TGI
# MCF7 [15] = test: Antitumor activity against Adriamycin-resistant human MCF7 cells xenografted in athymic nude BALB/c mouse assessed as tumor growth inhibition at 5 mg/kg, iv measured every 4 days for 40 days by caliper method in presence of Adriamycin relative to control; assay type: functional; details: MCF7, 960 h, time 40 day, read-out: TGI
# [16] = Hemolytic activity against human erythrocytes assessed as induction of cell lysis; assay type: toxicity, cell-based, Erythrocyte
# [17] = target: Tyrosine-protein phosphatase non-receptor type 1 (Homo sapiens, UniProt P18031); test: Inhibition of recombinant human PTP1B expressed in Escherichia coli using p-nitrophenyl phosphate as substrate preincubated for 15 mins followed by substrate addition measured after 60 mins by absorbance based assay
# Chain of Tyrosine-protein phosphatase non-receptor type 1 (P18031 whole entry): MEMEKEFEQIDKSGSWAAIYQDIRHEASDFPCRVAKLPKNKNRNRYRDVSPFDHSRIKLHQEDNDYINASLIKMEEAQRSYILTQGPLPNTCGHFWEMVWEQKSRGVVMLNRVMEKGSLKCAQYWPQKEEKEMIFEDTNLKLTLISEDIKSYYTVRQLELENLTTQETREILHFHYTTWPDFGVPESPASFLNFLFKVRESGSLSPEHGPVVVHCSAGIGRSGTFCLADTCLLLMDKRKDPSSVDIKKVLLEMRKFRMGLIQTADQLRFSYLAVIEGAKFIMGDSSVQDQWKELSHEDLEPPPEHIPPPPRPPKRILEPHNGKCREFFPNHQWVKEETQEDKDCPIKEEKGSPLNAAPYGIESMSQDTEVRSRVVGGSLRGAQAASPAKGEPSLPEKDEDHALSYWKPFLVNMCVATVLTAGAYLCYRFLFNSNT
# [18] = target: Tyrosine-protein phosphatase non-receptor type 2 (Homo sapiens, UniProt P17706); test: Inhibition of recombinant human TCPTP expressed in Escherichia coli using p-nitrophenyl phosphate as substrate preincubated for 15 mins followed by substrate addition measured after 60 mins by absorbance based assay
# Chain of Tyrosine-protein phosphatase non-receptor type 2 (P17706 whole entry): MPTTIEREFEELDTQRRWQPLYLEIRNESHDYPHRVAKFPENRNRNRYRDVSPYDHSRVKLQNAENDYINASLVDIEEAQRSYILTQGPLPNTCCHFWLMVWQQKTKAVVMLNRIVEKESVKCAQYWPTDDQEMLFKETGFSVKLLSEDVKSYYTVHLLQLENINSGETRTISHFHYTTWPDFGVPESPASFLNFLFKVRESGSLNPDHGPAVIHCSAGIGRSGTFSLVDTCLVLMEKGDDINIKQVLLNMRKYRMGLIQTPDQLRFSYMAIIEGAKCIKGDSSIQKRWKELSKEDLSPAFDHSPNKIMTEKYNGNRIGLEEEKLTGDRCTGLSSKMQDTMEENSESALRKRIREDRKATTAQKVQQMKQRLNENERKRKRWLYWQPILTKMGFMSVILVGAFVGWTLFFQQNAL
# [19] = Cytotoxicity against human HTB26 cells assessed as cell growth inhibition by Alamar blue staining based fluorescence assay; assay type: functional
# HCT-116 = test: Cytotoxicity against human HCT-116 cells assessed as cell growth inhibition by Alamar blue staining based fluorescence assay; assay type: functional
# MCF7 [20] = test: Cytotoxicity against human MCF7 cells assessed as cell growth inhibition by Alamar blue staining based fluorescence assay; assay type: functional
# [21] = Cytotoxicity against African green monkey cells assessed as cell growth inhibition by Alamar blue staining based fluorescence assay; assay type: toxicity; details: African green monkey (Chlorocebus sabaeus), Vero cells
compound,measurement,setting,value
C=C1CC[C@H]2C(C)(C)[C@@H](O)CC[C@]2(C)[C@H]1CC(=O)[C@]1(O)C=C(CSC[C@H](O)C(=O)OC)C(=O)C1,IC50,[1],3.2 µM
same,IC50,[2],1.8 µM
same,IC50,[3],10 µM
same,IC50,[4],4.6 µM
C=C[C@@]1(C)CC[C@H]2C(C=C[C@H]3[C@H](CO)CC(=O)C[C@]23C)C1 (some centres undefined),IC50,Androgen receptor,9.71 µM
CN1C=C(C(N)=O)[C@@H]2C[C@H](O)[C@@](NC(=O)CS(N)(=O)=O)(C(=O)O)[C@@H]2C1,IC50,L1210,0.84 µM
same,IC50,[5],0.82 µM
CC1=CCC[C@@H](C)[C@]1(C)CC[C@@]1(C)c2c(O)cc3c(c2O[C@@H]1C)C(=O)C(C)=C(O)C3=O,IC50,[6],10 µM
COC(=O)N[C@H]1[C@@H](C)O[C@@H](O[C@H]2C/C=C(\C)[C@]3(C)CC[C@@H]4[C@@H](O[C@H]5C[C@@H](O[C@H]6C[C@@H](O)[C@@H](O[C@@H]7C[C@@H](O)[C@@H](OC)[C@H](C)O7)[C@H](C)O6)C[C@H](C)O5)[C@@H](C)C[C@H](C)[C@H]4[C@]3(C)C(=O)C3C(=O)OC4(C[C@@H](C)C(CO)=C[C@H]4/C=C/2C)C3=O)C[C@]1(C)N (some centres undefined),IC50,MDA-MB-435,7.5 µM
CC(=O)c1nncc2c1C(=O)C1=C(OC(C)(C)[C@H](Cl)C1=O)[C@]2(O)C[C@H]1C(C)(C)[C@@H](Cl)CC[C@]1(C)O,IC50,T-cell,40 µM
same,IC50,Macrophage,40 µM
CC1(C)CCC[C@@](C)(c2ccc(CO)cc2O)O1,IC50,A549 [7],> 50 µg/mL
same,IC50,HL-60,> 50 µg/mL
COc1cc2nc(C(=O)NCC(=O)O)sc2c(C/C=C(\C)CC/C=C(\C)CC/C=C(\C)CCC/C(C)=C\CC(=O)O)c1O,IC50,NSCLC,1.5 µM
same,IC50,NCI-H1395,2.5 µM
same,IC50,HCC1395,6.8 µM
C=C(C)[C@H]1CC=C(C)[C@H]2C[C@H]3Cc4c(C)cc(O)cc4O[C@@]3(C)C[C@H]12,IC50,SF-268,20 µM
same,IC50,MCF7 [8],20 µM
same,IC50,HepG2,20 µM
same,IC50,A549 [9],20 µM
C=C1C(=O)C=C2C=C3[C@@H](O)C(C)(C)C[C@@]3(O)[C@]12C,inhibition in vivo at 10 mg/kg/day,SW-620,50%
CO[C@H]1O[C@@]2(OC)C[C@@](C)(O)[C@H]3C[C@@]4(C)CC[C@H]([C@@H](C)/C=C\C=C(C)C)[C@@H]4C/C=C/1[C@H]32 [OPHIOBOLIN O],inhibition in vivo at 5 mg/kg,MCF7 [10],35%
same,inhibition in vivo at 10 mg/kg,MCF7 [11],46%
same,inhibition in vivo at 20 mg/kg,MCF7 [12],69%
same,inhibition in vivo at 20 mg/kg,MCF7 [13],73%
same,inhibition in vivo at 5 mg/kg,MCF7 [14],23%
same,inhibition in vivo at 5 mg/kg,MCF7 [15],71%
Cc1cc2c(c(=O)o1)C[C@@H]1[C@@]3(C)[C@H](O)CC(=O)OC(C)(C)[C@@H]3[C@H](O)C[C@@]1(C)O2,EC50,[16],1150 µM
CC1(C)Oc2c(nc3c4c2C(=O)CC[C@]4(C)[C@@]2(C)c4[nH]c5ccccc5c4C[C@@H]2C3)[C@H]1O,IC50,[17],1.7 µM
same,IC50,[18],1.7 µM
C=C(C)C1C[C@H](O)C2(C)CCCC3C2C1CC(C)C3(C)CC/C(C)=C/[C@@H](O)[C@@H]1CCC(=O)c2c(OC)cc(OC)cc21 (some centres undefined),IC50,[19],10.1 µM
same,IC50,HCT-116,11.9 µM
same,IC50,MCF7 [20],7.8 µM
same,IC50,[21],23.7 µM

# From ChEMBL document CHEMBL5104094, “Chemistry, biosynthesis and biological activity of terpenoids and meroterpenoids in bacteria and fungi isolated from different marine habitats” (Eur J Med Chem, 2021)
